This note sets out measurements from US4568687A, “N-[2-4-(1H-Imidazol-1-yl)alkyl]-arylamides and pharmaceutical compositions” (American Cyanamid Company, priority 1984, dated 1986).

The test system of assay [1] is spontaneously hypertensive rats of the Okamoto strain. The assay is described as follows: Hypotensive activity: mean arterial blood pressure (MABP) in spontaneously hypertensive rats, method of Chan and Poorvin. Format: in vivo. The note with it: gavage, 100 mg/kg or less, two doses 24 hours apart, sodium chloride loading; 28 hours after initial dose; average of 1-4 rats; initial average 160±1.5 mm; active if ≤116 (1 rat), ≤122 (2 rats), ≤128 (3 rats). The method, then:
The novel compounds of the present invention are also active hypotensive agents and were tested for hypotensive activity by the method of P. S. Chan and D. Poorvin, Clinical and Experimental Hypertension, 1 (6), 817-830 (1979). Male, 16 week old, spontaneously hypertensive rats of the Okamoto strain, from Taconic Farms, Germantown, N.Y. having an average mean arterial blood pressure of 160±1.5 mm of mercury are used in the test. […] A rat is dosed by gavage with a test compound, suspended in 2% pre-boiled starch at a concentration of 50 mg/ml, at a dose of 100 mg/kg of body weight or less, with 0.9% sodium chloride loading at a dose of 25 ml/kg of body weight. A second identical dose of the test compound, without sodium chloride loading is given 24 hours later. At 28 hours after the initial dose, the mean arterial blood pressure (MABP) is measured by the method of Chan and Poorvin vide supra. The procedure is repeated in a second and third rat when necessary. Based on the data obtained and using the three-stage "sequential probability ratio test" statistical method, the criteria for activity or retest are as follows:
If the blood pressure in the first rat is ≤116 mm mercury the compound is considered active. If the blood pressure is between […], a second rat is used. If the average blood pressure of the first and second rats is ≤122 mm the compound is considered active. If the average blood pressure is between 123 and 137 mm, a third rat is used. If the average blood pressure of the three rats is ≤128 mm the compound is considered active. The results of this test on representative compounds of the present invention appear in Table II below.

In the next assay the target is T1, thromboxane synthetase (Rattus norvegicus, UniProt P49430).
T1 construct: The platelets were isolated by centrifuging the PRP for 10 minutes; endogenous in cells; host or cells: washed platelets from arterial blood of Okamoto-Aoki spontaneously hypertensive rats (rats from Taconic Farms)
T1 sequence (P49430 1-533): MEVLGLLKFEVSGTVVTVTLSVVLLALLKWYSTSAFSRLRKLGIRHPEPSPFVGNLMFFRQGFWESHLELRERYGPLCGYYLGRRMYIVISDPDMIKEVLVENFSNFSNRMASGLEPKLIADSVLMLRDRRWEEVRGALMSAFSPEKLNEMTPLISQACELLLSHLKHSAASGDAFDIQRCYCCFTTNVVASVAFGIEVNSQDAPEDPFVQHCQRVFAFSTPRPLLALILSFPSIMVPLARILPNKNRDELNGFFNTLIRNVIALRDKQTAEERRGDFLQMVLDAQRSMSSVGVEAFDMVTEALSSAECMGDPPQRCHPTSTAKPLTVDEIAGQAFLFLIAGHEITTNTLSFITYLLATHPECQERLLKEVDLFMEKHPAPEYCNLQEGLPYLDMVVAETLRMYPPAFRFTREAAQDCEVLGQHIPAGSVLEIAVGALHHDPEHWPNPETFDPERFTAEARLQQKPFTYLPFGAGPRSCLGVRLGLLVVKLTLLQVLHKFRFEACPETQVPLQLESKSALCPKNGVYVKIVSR
As to the kind of experiment: Inhibition of thromboxane (TXB2) formation in washed rat platelets, TXB2 by direct radioimmunoassay. Format: cell-based, Okamoto-Aoki spontaneously hypertensive rats (SHR). The conditions noted are these: 10 min; Dose 10^-4 (unit inferred); SHR platelet suspension, 10 minutes at 37° C. As to the method: Under urethan anesthesia, […] of arterial blood was collected in one ml. of 3.2% sodium citrate in a polystyrene tube from Okamoto-Aoki spontaneously hypertensive rats (SHR) (Taconic Farms, Germantown, NY) between 19 and 24 weeks in age. The blood was diluted with 3 ml. cold saline and centrifuged at room temperature for 15 minutes at 460×g. The platelet rich plasma (PRP) was separated. The platelets were isolated by centrifuging the PRP for 10 minutes at 1060×g and were washed in 4 ml. cold oxygenated Krebs phosphate buffer, pH 7.4. The chilled patelets recovered from centrifuging at 800×g for 10 minutes were resuspended in oxygenated Krebs phosphate buffer and diluted to contain 4.5-6.0×10^4 platelets/μl.
The inhibition of thromboxane (TX) formation was studied by determining the […] of thromboxane B2 (TXB2), the stable hydrolysis product of TXA2. Assay samples, prepared on ice, contained 200 μl platelet suspension, 50 μl saline, and 50 μl vehicle or drug under study (OKY-1581, UK-37248-01, 1-benzylimidazole, or indomethacin). The samples were incubated for 10 minutes at 37° C. in a metabolic shaker. The reaction was terminated by immersing the tubes in an ice bath and adding 50 μl of 0.5M citric acid. The samples were centrifuged for 10 minutes in a refrigerated centrifuge and the supernatants thus obtained were decanted and stored at -20° C. The TXB2 content for each sample was determined by a direct radioimmunoassay (RIA) utilizing a TXB2 specific RIA kit purchased from New England Nuclear, Boston, MA and expressed as pg TXB2 formed minute^-1 sample^-1, from which the percent inhibition of TXB2 formation was calculated.

Usually inhibition stands for how much of the control response was suppressed. A low value points to little suppression. As for `Cc1cn(CCCNC(=O)c2ccc(Br)cc2)cn1` [4-bromo-N--[3-(4-methyl-1H--imidazol-1-yl)propyl]benzamide], the “MABP/mm Hg” value in assay [1] is listed as 122 mm Hg. This compound showed an inhibition at 100 µM on thromboxane synthetase of 80%.
In the case of `O=C(NCCCn1cnc(-c2ccccc2)c1)c1ccc(Cl)cc1` [4-Chloro-N-[3-(4-phenyl-1H-imidazol-1-yl)propyl]-benzamide], the “MABP/mm Hg” value in assay [1] was 125 mm Hg. On thromboxane synthetase, this compound gave an inhibition at 100 µM of 69%.
In the same order, the values of `O=C(NCCCn1ccnc1)c1ccc(Br)cc1` [4-bromo-N--[3-(1H--imidazol-1-yl)propyl]benzamide] are 120 mm Hg and 85%.
For the compound `Cc1cn(CCCNC(=O)c2ccc(Cl)c(Cl)c2)cn1` [3,4-dichloro-N--[3-(4-methyl-1H--imidazol-1-yl)propyl]benzamide], the “MABP/mm Hg” value in assay [1] amounted to 116 mm Hg. 100 µM produced 90% inhibition at thromboxane synthetase.
Consider `O=C(NCCCn1ccnc1)c1cccc2ccccc12` [N--[3-(1H--imidazol-1-yl)propyl]-1-naphthalenecarboxamide], for which, in assay [1], the “MABP/mm Hg” value is recorded as 124 mm Hg. For the same compound, on thromboxane synthetase, the inhibition at 100 µM was found to be 75%.
On to `C=CCNc1ccc(Cl)cc1C(=O)NCCCn1ccnc1` [2-Allylamino-5-chloro-N--[3-(1H--imidazol-1-yl)propyl]benzamide], for which the “MABP/mm Hg” value in assay [1] is 124 mm Hg. At thromboxane synthetase, this compound yielded an inhibition at 100 µM of 95%.
